Some test systems named below: TK-10 renal; SF-539 CNS; MDA-MB-435; U251 CNS; UO-31 renal; 786-0 renal; K-562 leukemia; SW-620 colon; OVCAR-3 ovarian; CCRF-CEM leukemia.
Holding throughout (test): growth of human tumour cells (NCI), 48 h

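How tested: cells in 96-well plates exposed to compound for 48 hours at five concentrations. TGI denotes the concentration required for complete inhibition of growth.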

Turning to `CCN(CC)COC(=S)S`, the TGI in the assay with TK-10 renal, in the assay with SF-539 CNS, in the assay with MDA-MB-435, in the assay on U251 CNS, with UO-31 renal and in the assay on 786-0 renal was > 100 µM throughout. The TGI in the assay with K-562 leukemia was > 100 µM; in the assay with SW-620 colon it was 78.1 µM.
For the compound `Oc1ccc(-c2cn3cc(C(F)(F)F)ccc3n2)cc1`, the TGI with TK-10 renal, in the assay on MDA-MB-435, in the assay with U251 CNS, in the assay on UO-31 renal, in the assay on OVCAR-3 ovarian and with 786-0 renal was > 100 µM throughout. The TGI with K-562 leukemia, in the assay on SW-620 colon and in the assay with CCRF-CEM leukemia was > 100 µM in each case.
With `O=C(O)CCC(NC(=O)c1ccc(CNc2nc3ccccc3nc2C(=O)O)cc1)C(=O)O` (configuration not stated), the TGI in the assay on TK-10 renal, in the assay on MDA-MB-435, in the assay on U251 CNS, in the assay on UO-31 renal, with OVCAR-3 ovarian and in the assay on 786-0 renal was > 100 µM in each case. Also, the TGI in the assay with K-562 leukemia, with SW-620 colon and in the assay on CCRF-CEM leukemia was > 100 µM each time.
With `CN(C)C(=O)C1CCN(Cc2c[nH]c3ccccc23)CC1`, the TGI in the assay with TK-10 renal, with MDA-MB-435, with U251 CNS, in the assay on UO-31 renal, in the assay with OVCAR-3 ovarian and in the assay on 786-0 renal was > 100 µM in each case. In addition, the TGI was > 100 µM with K-562 leukemia and 30.7 µM in the assay with SW-620 colon.
As for `COc1ccc2nc3n(c2c1)C(c1c(Cl)cccc1Cl)SC3` (configuration not stated), the TGI in the assay on TK-10 renal, in the assay with MDA-MB-435, in the assay on U251 CNS, in the assay on UO-31 renal, with OVCAR-3 ovarian and with 786-0 renal was > 100 µM throughout. Also, the TGI with K-562 leukemia, in the assay with SW-620 colon and in the assay with CCRF-CEM leukemia was > 100 µM in each case.
On to `CCOC(=O)N1[C@@H]2CCC[C@@H]2C(=O)[C@@H]2CCC[C@@H]21`, for which the TGI in the assay on MDA-MB-435, with U251 CNS, with OVCAR-3 ovarian, in the assay on 786-0 renal, in the assay on K-562 leukemia and in the assay on SW-620 colon was > 100 µM each time. In addition, in the assay on CCRF-CEM leukemia, the TGI was > 100 µM.
Consider `COc1cc(C23OCC(Cc4cc5c(cc42)OCO5)C3CO)cc(OC)c1OC` (configuration not stated), for which the TGI with TK-10 renal was > 100 µM; in the assay with SF-539 CNS it was 26.2 µM; with U251 CNS, 43.8 µM; with UO-31 renal, > 100 µM; with OVCAR-3 ovarian, 5.8 µM; with 786-0 renal it was > 100 µM. In addition, the TGI with K-562 leukemia, in the assay on SW-620 colon and with CCRF-CEM leukemia was > 100 µM throughout.
Take `O=[N+]([O-])c1cccc2nc3ccccc3c(NCCCN3CCCCC3)c12`: the TGI in the assay with TK-10 renal came to 0.0712 µM; with SF-539 CNS, 0.0451 µM; with MDA-MB-435, 0.0227 µM; in the assay with U251 CNS, 0.0734 µM; in the assay on OVCAR-3 ovarian, 0.026 µM; in the assay with 786-0 renal, 0.0492 µM. Moreover, the TGI in the assay with K-562 leukemia was determined as 1.12 µM; with SW-620 colon, 5.89 µM.
On to `CCOC(=O)c1[nH]c2nc(SC)nc(Nc3ccccc3Cl)c2c1N`, for which the TGI is 56.3 µM in the assay on TK-10 renal; > 100 µM with MDA-MB-435; 31 µM in the assay on U251 CNS; 42.7 µM with UO-31 renal; 75.4 µM in the assay with OVCAR-3 ovarian; 46 µM in the assay with 786-0 renal. Moreover, the TGI in the assay on K-562 leukemia was 40.5 µM; in the assay with SW-620 colon it was > 100 µM; with CCRF-CEM leukemia, 46.8 µM.
Consider `COc1cc2c(c(OC(C)=O)c1OC(C)=O)-c1ccc(SC)c(=O)cc1C(NC(C)=O)CC2` (configuration not stated), for which the TGI in the assay on TK-10 renal is > 100 µM; in the assay with SF-539 CNS, 1.64 µM; in the assay on U251 CNS it was > 32 µM; in the assay on UO-31 renal, > 100 µM; in the assay on OVCAR-3 ovarian it was 2.43 µM; in the assay on 786-0 renal, > 100 µM. Besides, the TGI with K-562 leukemia is 36.3 µM; in the assay on SW-620 colon, > 100 µM; with CCRF-CEM leukemia, 35.7 µM.
In the case of `Nc1ccccc1N=Nc1c(S(=O)(=O)O)cc2cc(S(=O)(=O)O)cc(O)c2c1O`, the TGI in the assay with TK-10 renal, in the assay on MDA-MB-435, in the assay on U251 CNS, in the assay on UO-31 renal, in the assay on OVCAR-3 ovarian and in the assay on 786-0 renal was > 100 µM throughout. The TGI in the assay with K-562 leukemia, in the assay with SW-620 colon and in the assay on CCRF-CEM leukemia was > 100 µM each time.
Regarding `Cn1c(-c2ccc(N=NNc3ccc(-c4n[nH]c(=S)n4C)cc3)cc2)n[nH]c1=S`, the TGI in the assay with TK-10 renal is > 100 µM; in the assay on MDA-MB-435 it was > 100 µM; in the assay with U251 CNS it was 28.9 µM; in the assay with OVCAR-3 ovarian, > 100 µM; with 786-0 renal, > 100 µM; in the assay with K-562 leukemia, > 100 µM. The TGI with SW-620 colon and in the assay with CCRF-CEM leukemia was > 100 µM throughout.
Regarding `CN(C)CCCNC(=O)c1cc(NC(=O)c2cc(NC(=O)[C@@H]3C[C@H]3C(=O)Nc3cc(C(=O)Nc4cc(C(=O)NCCCN(C)C)n(C)c4)n(C)c3)cn2C)cn1C`, the TGI in the assay with SF-539 CNS, with MDA-MB-435, in the assay on U251 CNS, with 786-0 renal, in the assay on K-562 leukemia and in the assay with SW-620 colon was > 100 µM throughout. Also, the TGI in the assay on CCRF-CEM leukemia is > 100 µM.
For `CC1=CC(C)(C)Nc2ccc(CSc3ccccc3)cc21`, the TGI in the assay on TK-10 renal is > 100 µM; in the assay with SF-539 CNS, > 100 µM; with MDA-MB-435, 63.4 µM; in the assay with U251 CNS it was > 100 µM; in the assay with UO-31 renal, 50.8 µM; in the assay with OVCAR-3 ovarian it was 39.5 µM. Besides, the TGI in the assay with 786-0 renal is 72.1 µM; with K-562 leukemia it was > 100 µM; with SW-620 colon it was > 100 µM.
In the case of `CC(=O)N/C(=C\c1ccc(/C=C(\NC(C)=O)C2=NC3C(=O)c4ccccc4C(=O)C3N2)cc1)C1=NC2C(=O)c3ccccc3C(=O)C2N1` (configuration not stated), the TGI is 69.3 µM with TK-10 renal; > 100 µM in the assay with SF-539 CNS; > 100 µM in the assay with U251 CNS; 74.1 µM in the assay with UO-31 renal; > 100 µM in the assay on OVCAR-3 ovarian; > 100 µM in the assay with K-562 leukemia. The same compound yielded a TGI with CCRF-CEM leukemia of 86.4 µM.
As to `C[N+](C)([O-])Cc1cc(-c2ccccc2)ccc1O`, the TGI with TK-10 renal, in the assay on MDA-MB-435, in the assay with U251 CNS, with UO-31 renal, with OVCAR-3 ovarian and in the assay with 786-0 renal was > 100 µM each time. Further, the TGI with K-562 leukemia and in the assay with SW-620 colon was > 100 µM each time.
For the compound `[O-][n+]1c(-c2ccccc2)c2nc3ccccc3nc2c2ccccc21`, the TGI with TK-10 renal, with SF-539 CNS, in the assay with U251 CNS, in the assay on UO-31 renal, with OVCAR-3 ovarian and with 786-0 renal was > 100 µM in each case. In addition, the TGI in the assay on K-562 leukemia, in the assay with SW-620 colon and in the assay on CCRF-CEM leukemia was > 100 µM in each case.
Regarding `CCN(CC)CCNc1ccc2nnn3c4ccccc4c(=O)c1c23`, the TGI in the assay with TK-10 renal was found to be 22.9 µM; in the assay with SF-539 CNS it was 19.6 µM; in the assay on U251 CNS it was 9.22 µM; in the assay on UO-31 renal, 29.3 µM; in the assay on OVCAR-3 ovarian, 23.7 µM; in the assay on 786-0 renal, 20.7 µM. For the same compound, the TGI in the assay on K-562 leukemia was 14.8 µM; in the assay with SW-620 colon, 15.4 µM; in the assay with CCRF-CEM leukemia, 18.7 µM.
For the compound `Cc1c2c(ccc3ccccc32)c[n+]2ccccc12`, the TGI with TK-10 renal is > 100 µM; in the assay on SF-539 CNS, 33.2 µM; with U251 CNS it was 13.8 µM; in the assay with UO-31 renal it was > 100 µM; in the assay on OVCAR-3 ovarian it was 19.3 µM; with 786-0 renal it was > 100 µM. The TGI was 37.8 µM in the assay with K-562 leukemia, > 100 µM in the assay on SW-620 colon and 36.5 µM with CCRF-CEM leukemia.
With `CN(C)c1ccc(C(=NN)c2ccc(N(C)C)cc2)cc1`, the TGI in the assay on TK-10 renal was 3.66 µM; with MDA-MB-435, 0.298 µM; in the assay on U251 CNS, 9.21 µM; with UO-31 renal, > 100 µM; in the assay on 786-0 renal, 36.5 µM; in the assay on K-562 leukemia it was > 56.9 µM. Further, the TGI with SW-620 colon is > 100 µM; in the assay on CCRF-CEM leukemia, 3.41 µM.
On to `C=C1CC(COc2ccc3c(C)cc(=O)oc3c2)(c2ccccc2)OC1=O` (configuration not stated), for which the TGI in the assay with TK-10 renal is 3.42 µM; in the assay on SF-539 CNS it was 5.05 µM; in the assay on MDA-MB-435, 8.03 µM; in the assay with U251 CNS it was 23.6 µM; in the assay with UO-31 renal it was 14.5 µM; with OVCAR-3 ovarian, 5.59 µM. Also, the TGI in the assay on 786-0 renal turned out to be 2.79 µM; with SW-620 colon it was 2.31 µM.
For `COC(=O)C1C(C(=O)OC)C1(Br)CBr` (configuration not stated), the TGI was > 100 µM with TK-10 renal; > 100 µM in the assay with SF-539 CNS; > 100 µM in the assay on MDA-MB-435; > 100 µM in the assay with U251 CNS; 34.9 µM with UO-31 renal; > 100 µM with OVCAR-3 ovarian. Also, the figures for the TGI with 786-0 renal and in the assay with SW-620 colon were 36.3 µM and > 100 µM, respectively.
For `O=[As](O)(O)c1ccc2nc3cc([As](=O)(O)O)ccc3nc2c1`, the TGI in the assay on TK-10 renal, in the assay with MDA-MB-435, with U251 CNS, in the assay on UO-31 renal, in the assay with OVCAR-3 ovarian and with 786-0 renal was > 100 µM throughout. Besides, the TGI in the assay on K-562 leukemia and with SW-620 colon was > 100 µM each time.

The record behind these values is PubChem BioAssay (NCI).
